Our source for the IC50 values is US20170253601A1, “Substituted Pyrrolidine Compounds” (EPIZYME, INC., priority 2014, published 2017).

T1 sequence (Q9NRG4 whole entry): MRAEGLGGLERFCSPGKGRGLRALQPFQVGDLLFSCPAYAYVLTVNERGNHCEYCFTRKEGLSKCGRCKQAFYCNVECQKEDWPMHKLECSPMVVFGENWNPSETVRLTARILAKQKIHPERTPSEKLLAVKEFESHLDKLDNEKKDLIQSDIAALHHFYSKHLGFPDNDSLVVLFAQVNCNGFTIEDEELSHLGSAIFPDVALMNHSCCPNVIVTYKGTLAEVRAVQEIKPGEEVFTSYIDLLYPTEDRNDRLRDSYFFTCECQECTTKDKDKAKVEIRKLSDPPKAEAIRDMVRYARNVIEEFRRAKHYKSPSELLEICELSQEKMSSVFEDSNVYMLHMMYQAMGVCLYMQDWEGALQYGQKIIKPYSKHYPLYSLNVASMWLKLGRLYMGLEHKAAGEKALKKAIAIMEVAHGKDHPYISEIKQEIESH

One assay has as its target T1, SMYD2 (Homo sapiens, UniProt Q9NRG4).
T1 construct: Full length SMYD2 (NP 064582.2) was cloned; His6 (N, cleaved yes); FLAG (N); made in house; host or cells: Sf9 insect cells
In words: SMYD2 Biochemical Assay (3H-SAM, biotinylated peptide substrate, Flashplate). The following applies: IC50 values are an average of n = 1 to n = 50; read-out: SMYD2 Biochem IC50 (μM)*. In short, it runs like this: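 Methyltransferase activity tracked as 3H transfer from 10 nM 3H-SAM to 60 nM biotinylated peptide, counted after streptavidin Flashplate capture and normalised to DMSO and 1000 uM SAH controls. Enzyme: 1.5 nM full-length Sf9-expressed SMYD2, 30 min compound pre-incubation at room temperature, in Bicine pH 7.6 buffer with 2% DMSO; reactions quenched with 600 uM unlabelled SAM; IC50 from 3- or 4-parameter fit.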
Regarding `C[C@H]1CN(CC2CCNC2)C[C@H]1NC(=O)c1cc(C2CC2)on1` (mixture of isomers) [compound 163, (±)-cis-5-cyclopropyl-N-[4-methyl-1-(pyrrolidin-3-ylmethyl)pyrrolidin-3-yl]-1,2-oxazole-3-carboxamide], the IC50 is more than 50 µM.
Same read-out and setting: under `CCOC(=O)C(C)CN1C[C@@H](C)[C@H](NC(=O)c2cc(C3CC3)on2)C1` (relative stereo) [compound 128, trans-ethyl 3-[3-(5-cyclopropyl-1,2-oxazole-3-amido)-4-methylpyrrolidin-1-yl]-2-methylpropanoate] stands more than 50 µM; under `COc1ccc(CN2C[C@H](C)[C@H](NC(=O)c3cc(C4CC4)on3)C2)c(OC)c1` (racemic) [compound 212, (±)-cis-5-cyclopropyl-N-[1-[(2,4-dimethoxy-phenyl)methyl]-4-methylpyrrolidin-3-yl]-1,2-oxazole-3-carboxamide], 5.23 µM.
On the same count and under the same terms, the figure for `CCC(c1ccccc1)N1C[C@H](C)[C@H](NC(=O)c2cc(C3CC3)on2)C1` (relative stereo) [compound 329, cis-5-cyclopropyl-N-[4-methyl-1-(1-phenyl-propyl)pyrrolidin-3-yl]-1,2-oxazole-3-carboxamide] is 1.15 µM; for `COc1ncc(CN2C[C@H](C)[C@H](NC(=O)c3cc(C4CC4)on3)C2)cc1Br` (racemic) [compound 284, (±)-cis-N-{1-[(5-bromo-6-methoxypyridin-3-yl)methyl]-4-methyl-pyrrolidin-3-yl}-5-cyclopropyl-1,2-oxazole-3-carboxamide] it is 40.5 µM.
`CC[C@H]1CN(C(C)C)C[C@@H]1NC(=O)c1cc(C2CC2)on1` (racemic) [compound 199, (±)-trans-5-cyclopropyl-N-[4-ethyl-1-(propan-2-yl)pyrrolidin-3-yl]-1,2-oxazole-3-carboxamide]: the IC50 was 25.7 µM.
Take `C[C@@H]1CN(CC(F)F)C[C@H]1NC(=O)c1cc(C2CC2)on1` (racemic) [compound 215, (±)-trans-5-cyclopropyl-N-[1-(2,2-difluoro-ethyl)-4-methylpyrrolidin-3-yl]-1,2-oxazole-3-carboxamide]: the IC50 was more than 50 µM.
The same measure, in the same setting: the figure for `C[C@@H]1CN(CC2CCN(C(=O)OC(C)(C)C)CC2)C[C@H]1NC(=O)c1cc(C2CC2)on1` (racemic) [compound 255, (±)-trans-tert-butyl 4-{[3-(5-cyclopropyl-1,2-oxazole-3-amido)-4-methylpyrrolidin-1-yl]methyl}piperidine-1-carboxylate] is more than 50 µM.
The same measure, in the same setting: the figure for `C[C@H]1CN(Cc2ccc(Cl)cc2)C[C@H]1NC(=O)c1cc(C2CC2)on1` (racemic) [compound 210, (±)-cis-N-[1-[(4-chloro-phenyl)methyl]-4-methylpyrrolidin-3-yl]-5-cyclopropyl-1,2-oxazole-3-carboxamide] is 4.32 µM; for `CCc1nc(C)c(CN2C[C@H](C)[C@H](NC(=O)c3cc(C4CC4)on3)C2)[nH]1` (racemic) [compound 196, (±)-cis-5-cyclopropyl-N-(1-[(2-ethyl-4-methyl-1H-imidazol-5-yl)methyl]-4-methylpyrrolidin-3-yl)-1,2-oxazole-3-carboxamide] it is 35.5 µM; for `C[C@@H]1CN(CC(=O)N2CCCC2)C[C@H]1NC(=O)c1cc(C2CC2)on1` (racemic) [compound 293, (±)-trans-5-cyclopropyl-N-{4-methyl-1-[2-oxo-2-(pyrrolidin-1-yl)ethyl]pyrrolidin-3-yl}-1,2-oxazole-3-carboxamide] it is more than 50 µM.
With `CCc1nc(C)c(CN2C[C@@H](C)[C@H](NC(=O)c3cc(C4CC4)on3)C2)[nH]1` (racemic) [compound 131, (±)-trans-5-cyclopropyl-N-[1-[(2-ethyl-4-methyl-1H-imidazol-5-yl)methyl]-4-methyl-pyrrolidin-3-yl]-1,2-oxazole-3-carboxamide], the IC50 was more than 50 µM.
`Cc1nn(C)cc1CN1C[C@H](C)[C@H](NC(=O)c2cc(C3CC3)on2)C1` (racemic) [compound 326, (±)-cis-5-cyclopropyl-N-{1-[(1,3-dimethyl-1H-pyrazol-4-yl)methyl]-4-methylpyrrolidin-3-yl}-1,2-oxazole-3-carboxamide]: the half-inhibitory concentration (IC50) came out at 1.67 µM.
On the same count and under the same terms, under `C[C@H]1CN(Cc2c(Cl)cccc2Cl)C[C@H]1NC(=O)c1cc(C2CC2)on1` (racemic) [compound 322, (±)-cis-5-cyclopropyl-N-{1-[(2,6-dichloro-phenyl)methyl]-4-methylpyrrolidin-3-yl}-1,2-oxazole-3-carboxamide] stands more than 50 µM; under `C[C@H]1CN(c2ccncn2)C[C@H]1NC(=O)c1cc(C2CC2)on1` (racemic) [compound 340, (±)-cis-5-cyclopropyl-N-[4-methyl-1-(pyrimidin-4-yl)pyrrolidin-3-yl]-1,2-oxazole-3-carboxamide], more than 50 µM.
Still for that read-out and setting: under `C[C@H]1CN(Cc2ccc(N(C)C)cc2)C[C@H]1NC(=O)c1cc(C2CC2)on1` (racemic) [compound 230, (±)-cis-5-cyclopropyl-N-[1-{[4-(dimethyl-amino)phenyl]methyl}-4-methylpyrrolidin-3-yl]-1,2-oxazole-3-carboxamide] stands 4.08 µM; under `CC(C)c1cc(C(=O)N[C@H]2C[C@H](CNC(=O)C3CCCCC3)N(C3CC3)C2)no1` (stereo in doubt) [compound 190, (±)-trans-N-[5-[(cyclohexyl-formamido)methyl]-1-cyclopropylpyrrolidin-3-yl]-5-(propan-2-yl)-1,2-oxazole-3-carboxamide], more than 50 µM.
On to `CC(C)N1C[C@H](C)[C@H](NC(=O)c2cc(C3CCC3)on2)C1` (racemic) [compound 248, (±)-cis-5-cyclobutyl-N-[4-methyl-1-(propan-2-yl)pyrrolidin-3-yl]-1,2-oxazole-3-carboxamide], for which the IC50 turned out to be 10.5 µM.
For `CC(C)N1C[C@@H](NC(=O)c2cc(C3CC3)on2)C[C@H]1COCC#Cc1ccccc1` (stereo in doubt) [compound 240, (±)-cis-5-cyclopropyl-N-[(5-{[(3-phenylprop-2-yn-1-yl)oxy]methyl}-1-(propan-2-yl)pyrrolidin-3-yl]-1,2-oxazole-3-carboxamide], the IC50 is more than 50 µM.
Still for that read-out and setting: under `C[C@H]1CN(CC(C)(C)C)C[C@H]1NC(=O)c1cc(C2CC2)on1` (racemic) [compound 165, (±)-cis-5-cyclopropyl-N-[1-(2,2-dimethyl-propyl)-4-methylpyrrolidin-3-yl]-1,2-oxazole-3-carboxamide] stands 11.3 µM; under `CC(C)N1C[C@@H](C)[C@H](NC(=O)c2cc(C3(C)CCC3)on2)C1` (racemic) [compound 259, (±)-trans-N-[4-methyl-1-(propan-2-yl)pyrrolidin-3-yl]-5-(1-methylcyclobutyl)-1,2-oxazole-3-carboxamide], more than 50 µM.
The same measure, in the same setting: under `C[C@@H]1CN(CCC2CCN(C(=O)OC(C)(C)C)CC2)C[C@H]1NC(=O)c1cc(C2CC2)on1` (racemic) [compound 132] stands more than 50 µM; under `C[C@H]1CN(Cc2cc(Cl)cnc2Cl)C[C@H]1NC(=O)c1cc(C2CC2)on1` (racemic) [compound 232, (±)-cis-5-cyclopropyl-N-[1-[(2,5-dichloro-pyridin-3-yl)methyl]-4-methylpyrrolidin-3-yl]-1,2-oxazole-3-carboxamide], 36.1 µM.
The same measure, in the same setting: the figure for `C[C@H]1CN(CC2CCOCC2)C[C@H]1NC(=O)c1cc(C2CC2)on1` (racemic) [compound 175, (±)-cis-5-cyclopropyl-N-[4-methyl-1-(oxan-4-ylmethyl)pyrrolidin-3-yl]-1,2-oxazole-3-carboxamide] is 3.95 µM; for `COC(=O)CN1C[C@H](C)[C@H](NC(=O)c2cc(C3CC3)on2)C1` (racemic) [compound 221, (±)-cis-methyl 2-[3-(5-cyclopropyl-1,2-oxazole-3-amido)-4-methylpyrrolidin-1-yl]acetate] it is more than 50 µM; for `C[C@@H]1CN(Cc2c[nH]cn2)C[C@H]1NC(=O)c1cc(C2CC2)on1` (racemic) [compound 180, (±)-trans-5-cyclopropyl-N-[1-(1H-imidazol-4-ylmethyl)-4-methylpyrrolidin-3-yl]-1,2-oxazole-3-carboxamide] it is 42.5 µM.
As to `COc1cc(CN2C[C@H](C)[C@H](NC(=O)c3cc(C4CC4)on3)C2)cc(OC)c1` (racemic) [compound 333, (±)-cis-5-cyclopropyl-N-{1-[(3,5-dimethoxy-phenyl)methyl]-4-methylpyrrolidin-3-yl}-1,2-oxazole-3-carboxamide], the IC50 was more than 50 µM.

Staying with this assay, now noted: Table 1; average of n = 1 to n = 50; read-out: SMYD2 Biochem IC50.
As for `C[C@H]1CNC[C@H]1NC(=O)c1cc(C2CC2)on1` (racemic) [compound 38, (±)-cis-5-cyclopropyl-N-(4-methylpyrrolidin-3-yl)isoxazole-3-carboxamide], the half-maximal inhibitory concentration (IC50) was found to be 15.4 µM.
On to `C[C@H]1CN(C2CC2)C[C@H]1NC(=O)c1cc(C2CCCC2)on1` (racemic) [compound 54, (±)-cis-5-cyclopentyl-N-(1-cyclopropyl-4-methylpyrrolidin-3-yl)isoxazole-3-carboxamide], for which the IC50 was more than 50 µM.

The assay is the same for the next values; noted with them: Table 2; average of n = 1 to n = 50; read-out: SMYD2 Biochem IC50.
Turning to `C[C@@H]1CN(C2CCOCC2)C[C@@H]1NC(=O)c1cc(C2CC2)on1` (racemic) [compound 73, (±)-cis-5-cyclopropyl-N-(4-methyl-1-(tetrahydro-2H-pyran-4-yl)pyrrolidin-3-yl)isoxazole-3-carboxamide], the concentration for half-maximal inhibition (IC50) is 40.7 µM.
`CC(=O)N1C[C@@H](C)[C@H](NC(=O)c2cc(C3CC3)on2)C1` (racemic) [compound 89, (±)-trans-N-(1-acetyl-4-methylpyrrolidin-3-yl)-5-cyclopropylisoxazole-3-carboxamide]: the IC50 was more than 50 µM.
